Results: ChEMBL document CHEMBL1131315, “Synthesis and anticonvulsant activity of 2(3H)-benzoxazolone and 2(3H)-benzothiazolone derivatives” (J Med Chem, 1998)
“And” between values parts separate entries of the source, which are not always exact repeats. Equal entries are not always repeated. The source made the active and inactive calls. No cut-off for these calls is given here.

Tests used:
Mus musculus [1] = test: Inhibition of s.c. pentylenetetrazole induced seizure in mice following i.p. administration.; format: functional
[2] = The compound was tested for neurologic toxicity (rotarod) test for 4 hours in mice; active at 300 mg/kg; format: organism-based; set-up: dose 300 mg/kg; details: mouse, in vivo
[3] = The compound was tested for neurologic toxicity (rotarod) test for 30 min in mice; active at 100 mg/kg; format: organism-based; set-up: dose 100 mg/kg; details: mouse, in vivo, 0.5 h
Mus musculus [4] = test: The compound was tested for anticonvulsant activity in Maximal electroshock seizure test (MES) for 4 hr in mice(ip); active at 100 mg/kg; format: functional, organism-based; set-up: dose 100 mg/kg
Mus musculus [5] = test: The compound was tested for anticonvulsant activity in subcutaneous pentylenetetrazole seizure test (sc Met) for 30 min in mice; active at 300 mg/kg; format: functional, organism-based; set-up: dose 300 mg/kg
Rattus norvegicus [6] = species on record: Rattus norvegicus; test: Protective index value is the ratio between ED50 and TD50; format: functional
Mus musculus [7] = test: The compound was tested to inhibit 50% of induced maximal electroshock seizure in mice on ip administration; format: functional
Mus musculus [8] = test: Time of peak effect in mice following i.p. administration.; format: functional
[9] = The compound was tested for time of peak effect (TPE) in hours for its toxicity in mice on ip administration.; format: organism-based; details: mouse, in vivo
Rattus norvegicus [10] = test: The compound was tested for the toxic dose on oral administration.; format: functional
Mus musculus [11] = test: The compound was tested for anticonvulsant activity in subcutaneous pentylenetetrazole seizure test (sc Met) for 4 hr in mice; active at 300 mg/kg; format: functional, organism-based; set-up: dose 300 mg/kg
[12] = (§1) The compound was determined for the dose (mg/kg) by rotarod test at the time of peak neurotoxic effect in mice on ip administration.; format: ADME, organism-based; details: mouse, in vivo
Mus musculus [13] = species on record: Mus musculus; test: Protective index value is the ratio between TD50 and ED50 values.; format: functional
Rattus norvegicus [14] = test: The compound was tested for the effective oral dose to inhibit 50% of the anticonvulsant in rats.; format: functional
Mus musculus [15] = test: Anticonvulsant activity in Maximal electroshock seizure test at 100 mg/kg i.p. in mice.; format: functional, organism-based; set-up: dose 100 mg/kg
Mus musculus [16] = test: The compound was tested for anticonvulsant activity in subcutaneous pentylenetetrazole seizure test (sc Met) for 30 min in mice; active at 100 mg/kg; format: functional, organism-based; set-up: dose 100 mg/kg
Mus musculus [17] = test: The compound was tested to inhibit 50% of induced maximal electroshock seizure in mice on ip administration.; format: functional
Rattus norvegicus [18] = test: The compound was tested for the effective oral dose to inhibit 50% of the anticonvulsant in rats; format: functional
[19] = The compound was tested for neurologic toxicity (rotarod) test for 4 hours in mice; no activity or no toxicity at 300 mg/kg; format: organism-based; set-up: dose 300 mg/kg; details: mouse, in vivo
Mus musculus [20] = test: The compound was tested for anticonvulsant activity in Maximal electroshock seizure test (MES) for 4 hr in mice(ip); no activity or toxicity at 300 mg/kg; format: functional, organism-based; set-up: dose 300 mg/kg
Mus musculus [21] = test: The anticonvulsant activity in subcutaneous pentylenetetrazole seizure test (sc Met) for 4 hr in mice; no activity or no toxicity at 300 mg/kg; format: functional, organism-based; set-up: dose 300 mg/kg
[22] = The compound was tested for neurologic toxicity (rotarod) test for 30 min in mice; no activity or no toxicity at 300 mg/kg; format: organism-based; set-up: dose 300 mg/kg; details: mouse, in vivo, 0.5 h
Mus musculus [23] = test: Anticonvulsant activity in subcutaneous pentylenetetrazole seizure test for 30 min in mice; No activity/toxicity at 300 mg/kg.; format: functional, organism-based; set-up: dose 300 mg/kg
Mus musculus [24] = test: The compound was tested for anticonvulsant activity in Maximal electroshock seizure test for 30 min in mice(ip); active at 300 mg/kg; format: functional, organism-based; set-up: dose 300 mg/kg
Mus musculus [25] = test: The compound was tested for anticonvulsant activity in Maximal electroshock seizure test (MES) for 4 hr in mice(ip); active at 300 mg/kg; format: functional, organism-based; set-up: dose 300 mg/kg
[26] = target: Sigma non-opioid intracellular receptor 1 (Homo sapiens) (UniProt Q99720); test: Ratio between the Ki(nM)values of sigma-2 and sigma-1; format: functional
Sequence of Sigma non-opioid intracellular receptor 1 (Homo sapiens) (Q99720 whole entry): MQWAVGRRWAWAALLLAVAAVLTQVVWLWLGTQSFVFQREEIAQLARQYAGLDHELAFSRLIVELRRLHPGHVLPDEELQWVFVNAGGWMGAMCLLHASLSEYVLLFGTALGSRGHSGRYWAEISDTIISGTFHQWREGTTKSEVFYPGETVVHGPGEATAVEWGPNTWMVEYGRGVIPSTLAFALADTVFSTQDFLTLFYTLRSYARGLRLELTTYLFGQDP

[27] = The compound was tested for neurologic toxicity (rotarod) test for 30 min in mice; active at 300 mg/kg; format: organism-based; set-up: dose 300 mg/kg; details: mouse, in vivo, 0.5 h
Sigma 2 receptor = test: Affinity on sigma 2 receptor using [3H]- DTG as radioligand
Mus musculus [28] = test: as §1; format: functional
[29] = The compound was tested for neurologic toxicity (rotarod) test for 4 hours in mice; active at 100 mg/kg; format: organism-based; set-up: dose 100 mg/kg; details: mouse, in vivo

## CCCCCc1ccc2nc(O)sc2c1
Mus musculus [1]
  ED50: 90.5 mg/kg
[2]
  Rotarod toxicity: active at 100 mg/kg
[3]
  Rotarod toxicity: active at 100 mg/kg
Mus musculus [4]
  MES: active at 100 mg/kg
Mus musculus [5]
  scMet: active at 300 mg/kg
Rattus norvegicus [6]
  PI: 2.4
Mus musculus [7]
  ED50: 58.9 mg/kg
Mus musculus [8]
  Activity: 0.25 h
[9]
  Toxicity: 0.5 h
Rattus norvegicus [10]
  TD50: > 120 mg/kg
Mus musculus [11]
  scMet: active at 300 mg/kg
[12]
  TD50: 137 mg/kg
Mus musculus [13]
  PI: 2.3 and 1.5
Rattus norvegicus [14]
  ED50: 50.5 mg/kg
Mus musculus [15]
  MES: active at 100 mg/kg

## Oc1nc2ccc(Cc3ccc(F)cc3)cc2o1
Mus musculus [1]
  ED50: 218 mg/kg
[2]
  Rotarod toxicity: active at 100 mg/kg
[3]
  Rotarod toxicity: active at 100 mg/kg
Mus musculus [4]
  MES: active at 100 mg/kg
Rattus norvegicus [6]
  PI: 18.5
Mus musculus [16]
  scMet: active at 100 mg/kg
Mus musculus [8]
  Activity: 1 h
[9]
  Toxicity: 1 h
Mus musculus [17]
  ED50: 125 mg/kg
Rattus norvegicus [18]
  ED50: 11.9 mg/kg
Rattus norvegicus [10]
  TD50: > 220 mg/kg
Mus musculus [11]
  scMet: active at 100 mg/kg
[12]
  TD50: 356 mg/kg
Mus musculus [13]
  PI: 2.8 and 1.6
Mus musculus [15]
  MES: active at 100 mg/kg

## CCC(=O)c1ccc2nc(O)oc2c1
[19]
  Rotarod toxicity: No activity or no toxicity at 300 mg/kg
Mus musculus [20]
  MES: active at 300 mg/kg
Mus musculus [21]
  scMet: No activity or no toxicity at 300 mg/kg
[22]
  Rotarod toxicity: No activity or no toxicity at 300 mg/kg
Mus musculus [23]
  scMet: No activity or no toxicity at 300 mg/kg
Mus musculus [24]
  MES: active at 300 mg/kg

## O=C(c1ccccc1)c1ccc2c(c1)sc(=O)n2CCN1CCCC1
Mus musculus [1]
  ED50: > 210 mg/kg
Mus musculus [25]
  MES: active at 300 mg/kg
[26]
  Ratio: 4
[27]
  Rotarod toxicity: active at 100 mg/kg
Sigma 2 receptor
  Ki: 0.225 µM
Mus musculus [8]
  Activity: 0.25 h
Mus musculus [28]
  TD50: 170 mg/kg
[9]
  Toxicity: 0.25 h
Mus musculus [17]
  ED50: 42.5 mg/kg
[29]
  Rotarod toxicity: active at 100 mg/kg
Mus musculus [21]
  scMet: No activity or no toxicity at 300 mg/kg
Mus musculus [23]
  scMet: No activity or no toxicity at 300 mg/kg
Mus musculus [15]
  MES: active at 300 mg/kg
